Data as given in patent publication US20230138455A1, “METHODS OF DOSING OF APICAL SODIUM-DEPENDENT BILE ACID TRANSPORTER INHIBITORS (ASBTIs)” (Mirum Pharmaceuticals, Inc., priority 2021, published 2023).
Structures can show the parent of a compound that is named as a salt.

Legend:
[1] = Phase 1 clinical study, incidence of GI TEAEs after Maralixibat 10 mg in fed versus fasted state; assay type: in vivo, human; conditions: healthy participants
Method: (§1) FIG. 2 is pie charts showing the proportion of healthy participants who experienced gastrointestinal (GI) treatment-emergent adverse events (AEs) following ASBTI administration at mealtime versus in the fasted state for each of the three studies. […] In each clinical study, the ASBTI was administered in both a fed and fasted state, and rates of GI AEs were compared.

[2] = Placebo-controlled trials in patients with ALGS, MRX dosed 30 mins prior to a meal, GI AE rates; assay type: in vivo, human; conditions: PBO-controlled trials, dosed in the fasted state 30 mins prior to a meal (PBO 44.4%)
Method: (§2) AE data from 3 separate phase 1 clinical studies on MRX and VLX in healthy participants were compiled to assess the impact of ASBTI dosing vs mealtime on GI AEs (Table 1, FIG. 1). In each clinical study, the ASBTI was administered in both a fed and fasted state, and rates of GI AEs were compared. Separately, AE data from placebo (PBO)-controlled trials in patients with ALGS, where MRX was dosed 30 mins prior to a meal, allows a comparison of GI AE rates for MRX vs PBO.

[3] = Phase 1 clinical study, incidence of GI TEAEs after Maralixibat 30 mg in fed versus fasted state; assay type: in vivo, human; conditions: healthy participants
Method: as §1

[4] = system: fecal bile acid (fBA) excretion; assay: Effect of maralixibat on fecal bile acid (fBA) excretion in healthy dogs, dosing time relative to mealtime; assay type: in vivo; conditions: for increase in fBA excretion, change compared with pre-treatment value: day 7
Method: FIG. 4 is a bar graph of the effect of maralixibat (MRX) on fecal bile acid (fBA) in dogs: change in fBA excretion from pre-treatment to day 7. The PD impact of ASBTI dosing time to mealtime was investigated in healthy dogs (FIG. 3). […] P<0.01 versus pre-treatment, by one-tail paired t-test. Data are presented as ±SEM (n = 7-8). % = change compared with pre-treatment value. Groups were dosed at the indicated times. Fecal samples were taken 48 hours before treatment initiation and for the last 72 hours of the 7-day treatment period and analyzed for bile acid content.

[5] = Phase 1 clinical study, incidence of GI TEAEs after Volixibat 75 mg in fed versus fasted state; assay type: in vivo, human; conditions: healthy participants
Method: FIG. 1 depicts study designs, drugs (MRX = maralixibat, VLX = volixibat), doses and at mealtime/fasted timelines for certain embodiments according to the disclosure. *Fasting was started ≥10-12 hours before MRX dosing. ^‡Patients were randomized 1:1 to two cohorts and received sequentially fasted then at mealtime dosing, or at mealtime then fasted dosing.
FIG. 2 is pie charts showing the proportion of healthy participants who experienced gastrointestinal (GI) treatment-emergent adverse events (AEs) following ASBTI administration at mealtime versus in the fasted state for each of the three studies.
as §2

Structure (SMILES): CCCCC1(CCCC)CS(=O)(=O)c2ccc(N(C)C)cc2[C@@H](c2ccc(OCc3ccc(C[N+]45CCN(CC4)CC5)cc3)cc2)[C@H]1O [Maralixibat, maralixibat]
- Incidence of GI TEAEs: Any GI TEAE, % of participants ([1]; Fasted (n=6)): 0 (0%)
- Incidence of GI TEAEs: Any GI TEAE, number of participants ([1]; Fasted (n=6)): 0 (0%)
- Incidence of GI TEAEs: Any GI TEAE, % of participants ([1]; Fed (n=6)): 33%
- Incidence of GI TEAEs: Any GI TEAE, number of participants ([1]; Fed (n=6)): 2
- Incidence of GI TEAEs: Diarrhea, % of participants ([1]; Fed (n=6)): 17%
- Incidence of GI TEAEs: Diarrhea, number of participants ([1]; Fed (n=6)): 1
- Incidence of GI TEAEs: Nausea, % of participants ([1]; Fed (n=6)): 17%
- Incidence of GI TEAEs: Nausea, number of participants ([1]; Fed (n=6)): 1
- diarrhea reported, frequency in patients [2]: 43.6%
- Incidence of GI TEAEs: Abdominal pain, % of participants ([3]; Fasted (n=12)): 8%
- Incidence of GI TEAEs: Abdominal pain, number of participants ([3]; Fasted (n=12)): 1
- Incidence of GI TEAEs: Any GI TEAE, % of participants ([3]; Fasted (n=12)): 50%
- Incidence of GI TEAEs: Any GI TEAE, number of participants ([3]; Fasted (n=12)): 6
- Incidence of GI TEAEs: Diarrhea, % of participants ([3]; Fasted (n=12)): 50%
- Incidence of GI TEAEs: Diarrhea, number of participants ([3]; Fasted (n=12)): 6
- Incidence of GI TEAEs: Abdominal pain, % of participants ([3]; Fed (n=12)): 42%
- Incidence of GI TEAEs: Abdominal pain, number of participants ([3]; Fed (n=12)): 5
- Incidence of GI TEAEs: Anorectal discomfort, % of participants ([3]; Fed (n=12)): 8%
- Incidence of GI TEAEs: Anorectal discomfort, number of participants ([3]; Fed (n=12)): 1
- Incidence of GI TEAEs: Any GI TEAE, % of participants ([3]; Fed (n=12)): 100%
- Incidence of GI TEAEs: Any GI TEAE, number of participants ([3]; Fed (n=12)): 12
- Incidence of GI TEAEs: Diarrhea, % of participants ([3]; Fed (n=12)): 92%
- Incidence of GI TEAEs: Diarrhea, number of participants ([3]; Fed (n=12)): 11
- Incidence of GI TEAEs: Nausea, % of participants ([3]; Fed (n=12)): 25%
- Incidence of GI TEAEs: Nausea, number of participants ([3]; Fed (n=12)): 3
- increase in fBA excretion, change compared with pre-treatment value ([4]; dosing 30 minutes prior to the meal): 231%
- increase in fBA excretion, change compared with pre-treatment value ([4]; dosing 4 hours after the meal): 229%
- fBA excretion vs pretreatment baseline ([4]; regardless of dosing time relative to the daily meal, p<0.01 by paired t-test): significantly increased fBA excretion

Structure (SMILES): CCCC[C@]1(CC)CS(=O)(=O)c2ccc(N(C)C)cc2[C@@H](c2cccc(NC(=O)N[C@@H]3O[C@H](COS(=O)(=O)O)[C@@H](O)[C@H](OCc4ccccc4)[C@H]3O)c2)[C@H]1O [Volixibat, (2R,3R,4S,5R,6R)-4-benzyloxy-6-{3-[3-((3S,4R,5R)-3-butyl-7-dimethylamino-3-ethyl-4-hydroxy-1,1-dioxo-2,3,4,5-tetrahydro-1H-benzo[b]thiepin-5-yl)-phenyl]-ureido}-3,5-dihydroxy-tetrahydro-pyran-2-ylmethyl) hydrogen sulfate]
- Incidence of GI TEAEs: Any GI TEAE, % of participants ([5]; Fasted (n=8)): 0 (0%)
- Incidence of GI TEAEs: Any GI TEAE, number of participants ([5]; Fasted (n=8)): 0 (0%)
- Incidence of GI TEAEs: Any GI TEAE, % of participants ([5]; Fed (n=8)): 75%
- Incidence of GI TEAEs: Any GI TEAE, number of participants ([5]; Fed (n=8)): 6
- Incidence of GI TEAEs: Diarrhea, % of participants ([5]; Fed (n=8)): 50%
- Incidence of GI TEAEs: Diarrhea, number of participants ([5]; Fed (n=8)): 4
- Incidence of GI TEAEs: Loose stools, % of participants ([5]; Fed (n=8)): 25%
- Incidence of GI TEAEs: Loose stools, number of participants ([5]; Fed (n=8)): 2
